Reference: ChEMBL document CHEMBL1201862, “PubChem BioAssay data set” (2004)
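Each compound was tested at five concentrations against cells in 96-well plates for 48 hours. The concentration for 50% growth inhibition is given as GI50.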 Active and inactive are the calls of the source. Cut-off read from the data, not from the text of the source: active = GI50 up to about 1.1 µM and inactive = higher.

What was measured:
Assay in all cases: DTP human tumour cell line panel, 48 h
HOP-92 = system: HOP-92
Malme-3M = system: Malme-3M
U-251 = system: U-251
SF-268 = system: SF-268
UACC-62 = system: UACC-62
HCT-116 = system: HCT-116
MOLT-4 = system: MOLT-4
EKVX = system: EKVX
SW-620 = system: SW-620
MDA-N = system: MDA-N
UACC-257 = system: UACC-257
OVCAR-8 = system: OVCAR-8
NCI-H460 = system: NCI-H460
TK-10 = system: TK-10
T47D = system: T47D
RPMI-8226 = system: RPMI-8226
NCI-H226 = system: NCI-H226
SK-OV-3 = system: SK-OV-3
HCC 2998 = system: HCC 2998
A549 = system: A549

Measured: GI50

COc1ccc(/C=C/c2cc(O)cc(OC3OC(CO)C(O)C(O)C3O)c2)cc1O (stereo not given)
inactive: HOP-92 > 100 µM | Malme-3M 67.1 µM | U-251 > 100 µM | SF-268 42.6 µM | UACC-62 19.4 µM | HCT-116 68.7 µM | MOLT-4 > 100 µM | EKVX > 100 µM | SW-620 > 100 µM | MDA-N > 100 µM | UACC-257 > 100 µM | OVCAR-8 > 100 µM | NCI-H460 > 100 µM | TK-10 > 100 µM | T47D > 100 µM | RPMI-8226 78.7 µM | NCI-H226 > 100 µM | SK-OV-3 > 100 µM | HCC 2998 > 100 µM | A549 69.2 µM

CCCCCCCCCCCCCCCCCc1nc(Cl)nc(Cl)c1Cl
inactive: HOP-92 > 100 µM | Malme-3M > 100 µM | U-251 > 100 µM | SF-268 > 100 µM | UACC-62 > 100 µM | HCT-116 > 100 µM | MOLT-4 76.7 µM | SW-620 > 100 µM | MDA-N > 100 µM | OVCAR-8 > 100 µM | NCI-H460 > 100 µM | TK-10 > 100 µM | T47D > 100 µM | RPMI-8226 24.4 µM | NCI-H226 15.6 µM | SK-OV-3 > 100 µM | HCC 2998 > 100 µM | A549 > 100 µM

COc1cc(OC)cc(Oc2nc3ccc(C(F)(F)F)cc3nc2-c2ccccc2)c1
inactive: HOP-92 > 100 µM | Malme-3M > 100 µM | U-251 > 100 µM | SF-268 > 100 µM | UACC-62 > 100 µM | HCT-116 > 100 µM | MOLT-4 > 100 µM | EKVX > 100 µM | SW-620 > 100 µM | MDA-N > 100 µM | UACC-257 > 100 µM | OVCAR-8 > 100 µM | NCI-H460 > 100 µM | TK-10 > 100 µM | T47D 28.4 µM | RPMI-8226 52.5 µM | NCI-H226 > 100 µM | SK-OV-3 > 100 µM | HCC 2998 > 100 µM | A549 > 100 µM

Cc1nc2ccc(F)cc2c2c1CCO2
inactive: HOP-92 78.7 µM | Malme-3M > 100 µM | U-251 66.2 µM | SF-268 > 100 µM | UACC-62 > 100 µM | HCT-116 68.1 µM | MOLT-4 > 100 µM | EKVX 39.7 µM | SW-620 > 100 µM | MDA-N 27.7 µM | UACC-257 > 100 µM | OVCAR-8 > 100 µM | NCI-H460 61.1 µM | TK-10 > 100 µM | T47D 52.6 µM | RPMI-8226 80 µM | NCI-H226 > 100 µM | HCC 2998 79.1 µM | A549 > 100 µM

COc1ccc(N2C(=O)C(Cl)C2c2cc3cc(Br)ccc3nc2Cl)cc1 (stereo not given)
inactive: HOP-92 8.38 µM | Malme-3M 4.94 µM | SF-268 6.38 µM | UACC-62 4.37 µM | HCT-116 4.68 µM | MOLT-4 4.38 µM | EKVX 4.67 µM | SW-620 5.55 µM | MDA-N 5.31 µM | UACC-257 5.2 µM | OVCAR-8 13.4 µM | NCI-H460 5.33 µM | TK-10 7.52 µM | T47D 15.1 µM | RPMI-8226 6.59 µM | NCI-H226 5.62 µM | SK-OV-3 16.6 µM | HCC 2998 4.09 µM | A549 11 µM

CCCCCCCCCCCCOCCCOP(=O)([O-])OCC[N+](C)(C)C
inactive: HOP-92 19.4 µM | Malme-3M 64.7 µM | U-251 16.1 µM | SF-268 30.3 µM | UACC-62 28.1 µM | HCT-116 26.4 µM | MOLT-4 20.2 µM | EKVX 99.1 µM | SW-620 63.5 µM | MDA-N 13 µM | UACC-257 > 76 µM | OVCAR-8 47.8 µM | NCI-H460 13.9 µM | TK-10 3.4 µM | T47D 3.64 µM | RPMI-8226 9.08 µM | NCI-H226 24.3 µM | SK-OV-3 50.8 µM | HCC 2998 7.4 µM | A549 64 µM

COc1cc(C/C=C/c2ccccc2)c(OC)cc1O [VIOLASTYRENE]
inactive: HOP-92 15.4 µM | Malme-3M 22.6 µM | U-251 18.7 µM | SF-268 25.9 µM | UACC-62 16.8 µM | HCT-116 17.3 µM | MOLT-4 18.6 µM | EKVX 18.1 µM | SW-620 20 µM | MDA-N 17.9 µM | UACC-257 29.4 µM | OVCAR-8 12.6 µM | NCI-H460 20.3 µM | TK-10 18.8 µM | T47D 17.4 µM | RPMI-8226 15.6 µM | NCI-H226 24.5 µM | HCC 2998 16.7 µM | A549 43.9 µM
